Tests used:
Granta519 (MCL) = experiment: MTT antiproliferation assay, combination of Compound 1 and BCL-2 inhibitor, Chou-Talalay Combination Index; format: cell-based; conditions: BCL-2 inhibitor in combination with Compound 1, 72 hours
Procedure: (§1) Venetoclax, S55746, S64315, and S63845, were used at a maximum concentration of 10 μM, following an eight fold dose response based on 1:4 compound dilutions plus an untreated control.
(§2) Cells were incubated for 72 hours at 37° C. and 5% CO2. The antiproliferative effect of single and combination treatments were determined by adding 20 μL MTT [3-(4,5-dimethylthiazolyl-2)-2, 5-diphenyltetrazoliumbromide]reagent (Sigma Aldrich, Buchs, Switzerland) to each well and the plates were incubated at 37° C. for 4 hours, followed by adding 50 μL of sodium dodecyl sulfate (SDS) (250 μM SDS, 0.21% fuming HCl) lysis buffer. The lysed cells were kept overnight, and then the absorbance was read at 570 nm using the Cytation 3 instrument (BioTek, Winoosku, VT, USA). […] The effect of the combinations was defined as strongly synergistic for CI values below <0.3, synergistic for CI values between 0.3 and 0.9, additive for CI values between 0.9 and 1.1, and antagonistic for CI values >1.1.

MJ (CTCL) = experiment: as above; format: cell-based; conditions: BCL-2 inhibitor in combination with Compound 1, 72 hours
Procedure: as §1, §2

TMD8 (DLBCL) = experiment: as above; format: cell-based; conditions: BCL-2 inhibitor in combination with Compound 1, 72 hours
Procedure: as §1, §2

JVM2 (MCL) = experiment: as above; format: cell-based; conditions: BCL-2 inhibitor in combination with Compound 1, 72 hours
Procedure: as §1, §2

MEC1 (CLL) = experiment: as above; format: cell-based; conditions: BCL-2 inhibitor in combination with Compound 1, 72 hours
Procedure: as §1, §2

DNMT = conditions: more than that of azacytidine (Zhang 2022); cited from earlier work
SP49 (MCL) = experiment: MTT antiproliferation assay, combination of Compound 1 and BCL-2 inhibitor, Chou-Talalay Combination Index; format: cell-based; conditions: BCL-2 inhibitor in combination with Compound 1, 72 hours
Procedure: as §1, §2

Compound | CI value (median) (Granta519 (MCL)) | CI value (median) (MJ (CTCL)) | CI value (median) (TMD8 (DLBCL)) | CI value (median) (JVM2 (MCL)) | CI value (median) (MEC1 (CLL)) | inhibitory activity of DNMT relative to azacytidine (DNMT) [times] | CI value (median) (SP49 (MCL))
Cc1c(-c2c(-c3ccc(F)o3)sc3ncnc(O[C@H](Cc4ccccc4OCc4ccnn4CC(F)(F)F)C(=O)O)c23)ccc(OCCN2CCN(C)CC2)c1Cl (atropisomer, axis not shown) [Compound S63845, (R)-2-((5-(3-chloro-2-methyl-4-(2-(4-methylpiperazin-1-yl)ethoxy)phenyl)-6-(5-fluorofuran-2-yl)thieno[2,3-d]pyrimidin-4-yl)oxy)-3-(2-((1-(2,2,2-trifluoroethyl)-1H-pyrazol-5-yl)methoxy)phenyl)propanoic acid] | 0.47 | 0.67 | 0.86 | 0.33 | – | – | –
O=C(c1cc(-c2cc3c(cc2C(=O)N2Cc4ccccc4C[C@H]2CN2CCOCC2)OCO3)n2c1CCCC2)N(c1ccccc1)c1ccc(O)cc1 [Compound S55746, (S)—N-(4-hydroxyphenyl)-3-(6-(3-(morpholinomethyl)-1,2,3,4-tetrahydroisoquinoline-2-carbonyl)benzo[d][1,3]dioxol-5-yl)-N-phenyl-5,6,7,8-tetrahydroindolizine-1-carboxamide] | – | – | 0.4 | 0.46 | 0.21 | – | –
Nc1ncn([C@H]2C[C@H](O)[C@@H](CO)O2)c(=O)n1 [Decitabine, 5-aza-2′-deoxycytidine] | – | – | – | – | – | 30 | –
COc1ccccc1-c1nccc(COc2ccccc2C[C@@H](Oc2ncnc3sc(-c4ccc(F)cc4)c(-c4ccc(OCCN5CCN(C)CC5)c(Cl)c4C)c23)C(=O)O)n1 (atropisomer, axis not shown) [Compound S64315, (R)-2-((5-(3-chloro-2-methyl-4-(2-(4-methylpiperazin-1-yl)ethoxy)phenyl)-6-(4-fluorophenyl)thieno[2,3-d]pyrimidin-4-yl)oxy)-3-(2-((2-(2-methoxyphenyl)pyrimidin-4-yl)methoxy)phenyl)propanoic acid] | – | – | 0.23 | 0.24 | 0.88 | – | 0.71
CC1(C)CCC(CN2CCN(c3ccc(C(=O)NS(=O)(=O)c4ccc(NCC5CCOCC5)c([N+](=O)[O-])c4)c(Oc4cnc5[nH]ccc5c4)c3)CC2)=C(c2ccc(Cl)cc2)C1 [Venetoclax, 4-(4-{[2-(4-Chlorophenyl)-4,4-dimethyl-1-cyclohexen-1-yl]methyl}-1-piperazinyl)-N-({3-nitro-4-[(tetrahydro-2H-pyran-4-ylmethyl)amino]phenyl}sulfonyl)-2-(1H-pyrrolo[2,3-b]pyridin-5-yloxy)benzamide] | 0.81 | 0.47 | – | 0.15 | 0.05 | – | –

From US20260240862A1, “COMBINATION OF ROGINOLISIB AND BCL-2 INHIBITOR IN THE TREATMENT OF HAEMATOLOGICAL MALIGNANCY” (IONCTURA SA, priority 2023, published 2026)
